The text below walks through data of patent publication US10160755B2 (Plexxikon Inc., priority 2015, dated 2018).

Assay [1] concerns the target T1, FLT3-ITD (Homo sapiens, UniProt P36888).
T1 construct: FLT3-ITD; Invitrogen #PV6190
T1 sequence (P36888 1-993): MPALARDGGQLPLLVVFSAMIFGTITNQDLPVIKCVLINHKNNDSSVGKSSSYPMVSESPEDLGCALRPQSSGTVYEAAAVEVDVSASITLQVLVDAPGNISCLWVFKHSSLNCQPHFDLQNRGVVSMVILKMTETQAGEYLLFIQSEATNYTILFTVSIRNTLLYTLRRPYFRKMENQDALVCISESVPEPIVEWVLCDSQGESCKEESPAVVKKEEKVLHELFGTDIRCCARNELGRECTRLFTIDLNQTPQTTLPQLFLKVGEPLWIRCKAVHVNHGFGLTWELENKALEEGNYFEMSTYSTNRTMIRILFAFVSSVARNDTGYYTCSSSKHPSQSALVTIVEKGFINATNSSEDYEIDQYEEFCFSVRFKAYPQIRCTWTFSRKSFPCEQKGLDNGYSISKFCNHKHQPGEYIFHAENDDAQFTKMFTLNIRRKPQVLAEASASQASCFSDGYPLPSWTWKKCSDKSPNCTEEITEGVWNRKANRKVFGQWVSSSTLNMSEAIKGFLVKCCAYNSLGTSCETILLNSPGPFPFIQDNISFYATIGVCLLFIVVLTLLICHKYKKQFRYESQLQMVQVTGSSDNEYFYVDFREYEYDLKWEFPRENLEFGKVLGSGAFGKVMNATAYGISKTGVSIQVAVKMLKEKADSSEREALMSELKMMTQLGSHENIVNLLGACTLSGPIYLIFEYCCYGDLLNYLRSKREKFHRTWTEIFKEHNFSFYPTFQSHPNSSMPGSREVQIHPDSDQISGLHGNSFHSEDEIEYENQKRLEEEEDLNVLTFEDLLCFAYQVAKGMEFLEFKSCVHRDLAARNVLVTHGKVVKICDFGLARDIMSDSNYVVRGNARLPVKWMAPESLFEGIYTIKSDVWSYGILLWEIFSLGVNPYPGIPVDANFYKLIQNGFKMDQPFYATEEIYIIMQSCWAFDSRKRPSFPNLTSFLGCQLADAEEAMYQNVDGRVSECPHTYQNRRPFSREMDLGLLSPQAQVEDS
Put plainly: FLT3-ITD biochemical kinase assay (AlphaScreen). Put shortly: (§1)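 Compounds were tested against recombinant enzyme using AlphaScreen detection of tyrosine-phosphorylated biotin-poly(Glu4-Tyr) (30 nM final). The ATP concentration differed by construct: 10 μM for D835Y, 100 μM for ITD.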
(In general: Alpha assays give light when donor and acceptor beads are brought close together.)

Assay [2] addresses T2, FLT3-D835Y (Homo sapiens, UniProt P36888, D835Y).
T2 construct: purchased Invitrogen PV3967
T2 sequence (P36888 27-993 D835Y): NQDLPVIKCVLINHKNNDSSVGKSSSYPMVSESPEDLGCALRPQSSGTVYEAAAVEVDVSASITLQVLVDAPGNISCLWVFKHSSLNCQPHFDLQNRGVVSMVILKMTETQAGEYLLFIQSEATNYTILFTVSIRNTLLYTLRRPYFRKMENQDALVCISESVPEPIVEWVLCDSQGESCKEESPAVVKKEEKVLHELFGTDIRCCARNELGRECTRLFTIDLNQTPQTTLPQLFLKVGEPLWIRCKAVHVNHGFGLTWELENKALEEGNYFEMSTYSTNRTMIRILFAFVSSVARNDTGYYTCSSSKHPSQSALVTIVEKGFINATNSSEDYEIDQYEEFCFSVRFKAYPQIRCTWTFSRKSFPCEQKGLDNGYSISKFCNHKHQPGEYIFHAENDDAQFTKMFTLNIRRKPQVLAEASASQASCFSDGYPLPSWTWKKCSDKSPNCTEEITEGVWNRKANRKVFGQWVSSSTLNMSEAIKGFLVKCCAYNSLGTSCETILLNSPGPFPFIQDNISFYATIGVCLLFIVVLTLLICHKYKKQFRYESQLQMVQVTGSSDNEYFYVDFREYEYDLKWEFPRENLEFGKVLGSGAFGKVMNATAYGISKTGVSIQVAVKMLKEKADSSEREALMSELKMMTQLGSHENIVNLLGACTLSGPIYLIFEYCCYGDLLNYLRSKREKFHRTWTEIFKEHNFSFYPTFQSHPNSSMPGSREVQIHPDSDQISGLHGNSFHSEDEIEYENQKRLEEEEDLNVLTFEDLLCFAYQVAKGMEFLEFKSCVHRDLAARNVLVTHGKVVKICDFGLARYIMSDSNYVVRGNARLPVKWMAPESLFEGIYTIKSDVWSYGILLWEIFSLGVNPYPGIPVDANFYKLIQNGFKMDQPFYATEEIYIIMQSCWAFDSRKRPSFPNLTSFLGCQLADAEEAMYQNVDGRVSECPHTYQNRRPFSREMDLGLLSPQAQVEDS
Description: FLT3-D835Y biochemical kinase assay (AlphaScreen). A digest of the protocol: as §1

On to `CC(C)(C)n1cnc2ccc(-c3c[nH]c4ncc(-c5cccc(S(=O)(=O)N6CCCC6)c5)cc34)cc21` [P-220, 1-tert-butyl-6-[5-(3-pyrrolidin-1-ylsulfonylphenyl)-1H-pyrrolo[2,3-b]pyridin-3-yl]benzimidazole], for which the IC50 in assay [1] and in assay [2] was 0.0001 to 1 µM each time.

With `FC(F)(F)Oc1cccc(-c2cnc3[nH]cc(-c4ccc5ncn(C6CCCNC6)c5c4)c3n2)c1` (stereo not drawn) [P-193, 7-[3-(3-piperidyl)benzimidazol-5-yl]-2-[3-(trifluoromethoxy)phenyl]-5H-pyrrolo[2,3-b]pyrazine], the half-inhibitory concentration (IC50) in assay [1] and in assay [2] was 0.0001 to 1 µM each time.

For the molecule `FC(F)n1cc(-c2cnc3[nH]cc(-c4ccc5ncn(C6CCCNC6)c5c4)c3n2)cn1` (stereo not drawn) [P-257, 2-[1-(difluoromethyl)pyrazol-4-yl]-7-[3-(3-piperidyl)benzimidazol-5-yl]-5H-pyrrolo[2,3-b]pyrazine], the IC50 in assay [1] and in assay [2] was 0.0001 to 1 µM in each case.

As to `CCCS(=O)(=O)Nc1cccc(-c2cnc3[nH]cc(-c4ccc5ncn(C(C)(C)C)c5c4)c3n2)c1` [P-225, N-[3-[7-(3-tert-butylbenzimidazol-5-yl)-5H-pyrrolo[2,3-b]pyrazin-2-yl]phenyl]propane-1-sulfonamide], the half-inhibitory concentration (IC50) in assay [1] and in assay [2] was 0.0001 to 1 µM throughout.

With `CC(C)(C)n1cnc2ccc(-c3c[nH]c4ncc(-c5cnn(CC(F)(F)F)c5)cc34)cc21` [P-252, 1-tert-butyl-6-[5-[1-(2,2,2-trifluoroethyl)pyrazol-4-yl]-1H-pyrrolo[2,3-b]pyridin-3-yl]benzimidazole], the half-inhibitory concentration (IC50) in assay [1] and in assay [2] was 0.0001 to 1 µM throughout.

Consider `CCCS(=O)(=O)Nc1cccc(-c2cnc3[nH]cc(-c4ccc5ncn(C6CCCNC6)c5c4)c3c2)c1` (stereo not drawn) [P-217, N-[3-[3-[3-(3-piperidyl)benzimidazol-5-yl]-1H-pyrrolo[2,3-b]pyridin-5-yl]phenyl]propane-1-sulfonamide], for which the half-maximal inhibitory concentration (IC50) in assay [1] and in assay [2] was 0.0001 to 1 µM throughout.

Regarding `CC(C)(C)n1cnc2ccc(-c3c[nH]c4ncc(C(=O)Nc5cccc(C#N)c5)cc34)cc21` [P-218, 3-(3-tert-butylbenzimidazol-5-yl)-N-(3-cyanophenyl)-1H-pyrrolo[2,3-b]pyridine-5-carboxamide], the IC50 in assay [1] and in assay [2] was 0.0001 to 1 µM throughout.

As for `N#Cc1cc(-c2cnc3[nH]cc(-c4ccc5ncn(C6CCCNC6)c5c4)c3n2)ccc1F` (stereo not drawn) [P-238, 2-fluoro-5-[7-[3-(3-piperidyl)benzimidazol-5-yl]-5H-pyrrolo[2,3-b]pyrazin-2-yl]benzonitrile], the IC50 in assay [1] and in assay [2] was 0.0001 to 1 µM throughout.

Consider `COc1cnc2[nH]cc(-c3ccc4ncn(-c5cccc(Cl)c5)c4c3)c2c1` [P-105, 1-(3-chlorophenyl)-6-(5-methoxy-1H-pyrrolo[2,3-b]pyridin-3-yl)benzimidazole], for which the IC50 in assay [1] and in assay [2] was 0.0001 to 1 µM in each case.

`COc1cnc2[nH]cc(-c3ccc4ncn(-c5ccc(F)c(C)c5)c4c3)c2c1` [P-129, 1-(4-fluoro-3-methyl-phenyl)-6-(5-methoxy-1H-pyrrolo[2,3-b]pyridin-3-yl)benzimidazole]: the IC50 in assay [1] and in assay [2] was 0.0001 to 1 µM throughout.

Turning to `O=S(=O)(c1cccc(-c2cnc3[nH]cc(-c4ccc5ncn(C6CCCNC6)c5c4)c3c2)c1)N1CCCC1` (stereo not drawn) [P-222, 1-(3-piperidyl)-6-[5-(3-pyrrolidin-1-ylsulfonylphenyl)-1H-pyrrolo[2,3-b]pyridin-3-yl]benzimidazole], the IC50 in assay [1] and in assay [2] was 0.0001 to 1 µM throughout.

Consider `COc1ncc(-c2cnc3[nH]cc(-c4ccc5ncn(C(C)(C)C)c5c4)c3c2)cn1` [P-265, 1-(tert-butyl)-6-(5-(2-methoxypyrimidin-5-yl)-1H-pyrrolo[2,3-b]pyridin-3-yl)-1H-benzo[d]imidazole], for which the IC50 in assay [1] and in assay [2] was 0.0001 to 1 µM each time.

Consider `C#Cc1cnc2[nH]cc(-c3ccc4ncn(C(C)(C)C)c4c3)c2c1` [P-244, 1-tert-butyl-6-(5-ethynyl-1H-pyrrolo[2,3-b]pyridin-3-yl)benzimidazole], for which the half-inhibitory concentration (IC50) in assay [1] and in assay [2] was 0.0001 to 1 µM throughout.

Take `COc1cc(-c2cnc3[nH]cc(-c4ccc5ncn(C6CCCN(C)C6)c5c4)c3n2)ccn1` (stereo not drawn) [P-271, 2-(2-methoxy-4-pyridyl)-7-[3-(1-methyl-3-piperidyl)benzimidazol-5-yl]-5H-pyrrolo[2,3-b]pyrazine]: the IC50 in assay [1] and in assay [2] was 0.0001 to 1 µM throughout.

As to `N#Cc1cccc(-c2cnc3[nH]cc(-c4ccc5ncn(-c6ccc(F)c(Cl)c6)c5c4)c3c2)c1` [P-210, 3-[3-[3-(3-chloro-4-fluoro-phenyl)benzimidazol-5-yl]-1H-pyrrolo[2,3-b]pyridin-5-yl]benzonitrile], the IC50 in assay [1] and in assay [2] was 0.0001 to 1 µM in each case.

Consider `FC(F)(F)Oc1cccc(C#Cc2cnc3[nH]cc(-c4ccc5ncn(C6CCCNC6)c5c4)c3n2)c1` (stereo not drawn) [P-246, 7-[3-(3-piperidyl)benzimidazol-5-yl]-2-[2-[3-(trifluoromethoxy)phenyl]ethynyl]-5H-pyrrolo[2,3-b]pyrazine], for which the IC50 in assay [1] and in assay [2] was 0.0001 to 1 µM in each case.

With `O=S1(=O)CCCCN1c1cccc(-c2cnc3[nH]cc(-c4ccc5ncn(C6CCCNC6)c5c4)c3c2)c1` (stereo not drawn) [P-224, 2-[3-[3-[3-(3-piperidyl)benzimidazol-5-yl]-1H-pyrrolo[2,3-b]pyridin-5-yl]phenyl]thiazinane 1,1-dioxide], the IC50 in assay [1] and in assay [2] was 0.0001 to 1 µM throughout.

On to `CC(C)(C)n1cnc2ccc(-c3c[nH]c4ncc(-c5cccc(N6CCOCC6)c5)nc34)cc21` [P-226, 4-[3-[7-(3-tert-butylbenzimidazol-5-yl)-5H-pyrrolo[2,3-b]pyrazin-2-yl]phenyl]morpholine], for which the IC50 in assay [1] and in assay [2] was 0.0001 to 1 µM in each case.

With `CC(C)(C)n1cnc2ccc(-c3c[nH]c4ncc(-c5cccc(NS(C)(=O)=O)c5)nc34)cc21` [P-097, N-[3-[7-(3-tert-butylbenzimidazol-5-yl)-5H-pyrrolo[2,3-b]pyrazin-2-yl]phenyl]methanesulfonamide], the IC50 in assay [1] and in assay [2] was 0.0001 to 1 µM in each case.

With `CC(C)S(=O)(=O)Nc1cccc(-c2cnc3[nH]cc(-c4ccc5ncn(C6CCCNC6)c5c4)c3c2)c1` (stereo not drawn) [P-215, N-[3-[3-[3-(3-piperidyl)benzimidazol-5-yl]-1H-pyrrolo[2,3-b]pyridin-5-yl]phenyl]propane-2-sulfonamide], the IC50 in assay [1] and in assay [2] was 0.0001 to 1 µM each time.

As for `CC(C)S(=O)(=O)Nc1cccc(-c2cnc3[nH]cc(-c4ccc5ncn(C(C)(C)C)c5c4)c3n2)c1` [P-232, N-[3-[7-(3-tert-butylbenzimidazol-5-yl)-5H-pyrrolo[2,3-b]pyrazin-2-yl]phenyl]propane-2-sulfonamide], the IC50 in assay [1] and in assay [2] was 0.0001 to 1 µM throughout.
